Source: US7304091B2, “Statin-like compounds” (Myco TeO A/S, priority 2001, dated 2007)

Test system: male White rabbits
Test: Test of cholesterol-lowering effect in rabbits fed 1% cholesterol diet
Assay type: in vivo
Method: The cholesterol-lowering effect of Statan A was compared against a control in male White rabbits (purchased from Hvidesten, DK). The rabbits were housed in individual stainless steel cages with free access to water. The rabbits were divided into groups with similar baseline values of plasma cholesterol, which groups received: • 1) 5 mg/day PD498 (n=2)(Statan A), • 2) control group (n=4).
The rabbits were treated for 3 days. All animals were fed daily with 100 g of a standard rabbit diet (Altromin, Lage, Germany) containing 1% cholesterol. All test drugs were added to the diet. Remaining food were weighed.
Blood samples for cholesterol determination were drawn at baseline and at the three following days. Blood samples were taken from the marginal ear vein and the cholesterol determination was done the same day by enzymatic […] methods, using a commercially available kit (CHOD-PAP, Roche), on a COBAS MIRA auto-analyzer (Roche, Basle, CH).
Ten kg 1% cholesterol chow: 100 g cholesterol is dissolved in 500 g corn oil by heating to 40° C. […]

SMILES	Total plasma cholesterol levels compared to the control group (male White rabbits, 5 mg/day in 1% cholesterol diet, treated for 3 days, blood at baseline and three following days, FIG. 2)	cholesterol-lowering effect (rabbits, same method as Example 13)
Cc1ccc2cccc(O)c2c1CCC1CC(O)CC(=O)O1 (centres unmarked) [Statan A]	consistently lower	
Cc1ccc2ccccc2c1CC[C@@H]1C[C@@H](O)CC(=O)O1 [solistatin]		had cholesterol-lowering effect
